Experimental data taken from patent US9278940B2, “Cyclic amines as bromodomain inhibitors” (Zenith Epigenetics Corp., priority 2012, dated 2016).
Counter-ions that a name gives are not always drawn.

Test system: c-myc
Assay: Inhibition of c-myc expression (mRNA, real-time PCR) in MV4-11 cells
Assay type: cell-based
Parameters: key: Active: Compounds with an IC50 value less than 30 μM were deemed to be active.; Not Active: Compounds with an IC50 value less than 30 μM were deemed to be active
Details: Human AML MV4-11 cells, 3 hours
How it was run: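 MV4-11 cells (2.5×10^4) exposed to compound or 0.1% DMSO for 3 h at 37° C, then lysed for mRNA isolation. c-myc and cyclophilin cDNAs co-amplified by duplex RT real-time PCR. IC50 from dose-response curve.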

Compound: COc1cc(OC)c2c(=O)[nH]c(-c3cccc(N4CCN(C(C)C)CC4)n3)nc2c1 [Example 17, 2-(6-(4-Isopropylpiperazin-1-yl)pyridin-2-yl)-5,7-dimethoxyquinazolin-4(3H)-one Hydrochloride]
- c-myc activity (IC50 < 30 μM): Active
